# Patent US9676822B2, “Oligopeptidic compounds and uses thereof” (APIM THERAPEUTICS AS, priority 2008, dated 2017)
# Where a SMILES comes first, the peptide text is derived from it. Where no end group is shown, it is not given here. Side-chain parts run from the residue outwards. The star is where a group is joined. 5FAM = O=C1OC2(c3ccc(O)cc3Oc3cc(O)ccc32)c2ccc(C(=O)*)cc21; Ahx = NCCCCCC(=O)O
# Tests used:
# [1] = tested on: EYFP and hABH21-10-EYFP expressing cells; experiment: Flow analysis of the cell cycle after treatment with alkylating agents; assay type: cell-based
# Text: (§1) This is surprising since TMZ is believed to induce mainly O^6methyl-G which is repair by a direct repair mechanism by MGMT, not involving removal of any bases or strand breaks. […] The cells were still arrested in G2/M on day 3.
# [2] = tested on: EYFP and hABH21-10-EYFP expressing cells; experiment: Comet assay for DNA repair intermediates after treatment with alkylating agents; assay type: cell-based
# Text: as §1
# cell membranes = assay type: cell-based
# Procedure: The cells were treated with different concentrations (2, 4 and 8 μM) of peptide for 1 hour. Next, propidium iodide (PI) (50 μg/ml in PBS) was added, this will stain DNA if the cell membranes are permeable. Analysis were done within the next 10 minutes on a FACS Canto flow cytometer (BD-Life Science).
# HeLa cells [3] = experiment: MTT assay, peptide with cytostatic drugs (MMS, Cisplatin); assay type: cell-based
# Procedure: The effects of the peptides in sensitising cells to the effects of cytostatic drugs were investigated using an MTT assay and a clonogenic assay (CFU assay) as described below.
# HeLa cells were seeded into 96 well plates (6000 cells/well) and incubated for 3 hours. Various doses of MMS and Cisplatin were added to the wells. After 24 hours peptides were added to the cells in serum free media and incubated for 1 h. Fresh media with cytostatic drugs was added and the cells were harvested after additional 24, 48 and 72 hours. MTT was added to the cells (3-(4,5-Dimethylthiazol-2-yl)-2,5-diphenyltetrazolium bromide) and OD was measured at 570 nm [52], and the average from at least 6 wells was used to calculate cell survival. Data is presented as growth from one representative experiment and has been reproduced at least 2 times.
# HeLa cells [4] = tested on: HeLa cells
# Procedure: HeLa cells were seeded into 96 well plates (6000 cells/well) and incubated for 3 hours. Various doses of peptides were added to the wells in presence (filled diamonds) or absence of serum (filled square) in the media. After 1 h equal volume media with 10% or 20% serum (to serum free media) were added to the wells. The cells were incubated for 48 hours before measurement of cell survival by the MTT assay.
# Cytotoxicity of the peptides was investigated by an MTT assay as described below, using the peptides alone, in the absence of cytostatic drugs. Cytotoxicity data was also obtained from controls used in the cytostatic drug MTT assays (controls with peptide but without cytostatic drug), where the control peptides were followed for longer (4 days).
# Cytotoxicity of the peptides after 48 hours are measured using the MTT assay. HeLa cells were seeded into 96 well plates (6000 cells/well) and incubated for 3 hours. Various doses of peptides were added to the wells in presence or absence of serum in the media. After 1 h equal volume media with 1× or 2× (to serum free media) were added and the cells incubated for 48 hours before addition of MTT (see above).
# PCNA [5] = target: T1, PCNA (Homo sapiens, UniProt P12004); experiment: Co-localisation of EYFP fusion constructs with ECFP-PCNA by confocal imaging; assay type: cell-based; conditions: co-expressed with ECFP-PCNA
# T1 construct: endogenous in cells; host or cells: HeLa cells stably expressing the EYFP fusion constructs; fractionated cell extracts
# T1 sequence (P12004 whole entry, the tested form may be a part): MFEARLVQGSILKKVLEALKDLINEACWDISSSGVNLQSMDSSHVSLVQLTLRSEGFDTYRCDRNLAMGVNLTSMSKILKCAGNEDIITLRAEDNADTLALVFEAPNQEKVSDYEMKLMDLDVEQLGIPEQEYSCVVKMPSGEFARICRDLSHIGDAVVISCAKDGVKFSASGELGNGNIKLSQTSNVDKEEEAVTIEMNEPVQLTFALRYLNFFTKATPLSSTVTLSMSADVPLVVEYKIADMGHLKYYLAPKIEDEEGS
# Procedure: Confocal imaging and FRET measurements Live HeLa cells were examined 16-24 hours after transient transfection (by Fugene 6 (Roche Inc.) according to the manufacturer's recommendations) of ECFP and EYFP fusion constructs. Fluorescent images were acquired using a Zeiss LSM 510 Meta laser scanning microscope equipped with a Plan-Apochromat 63×/1.4 oil immersion objective. Enhanced cyan fluorescent protein (ECFP) was excited at λ=458 nm and detected at λ=470-500 nm and enhanced yellow fluorescent protein (EYFP) was excited at λ=514 nm and detected at λ=530-600 nm, using consecutive scans. The thickness of the slice was 1 μm.
# PCNA tagged with cyan fluorescent protein (ECFP) was co-expressed with various hABH2 deletion constructs fused with yellow fluorescent protein (EYFP). […] (FIG. 1).
# PCNA [6] = target: T1, PCNA; experiment: FRET measurement with ECFP-PCNA; assay type: cell-based; conditions: positive FRET: distance between tags less than 100 Å
# Text: Fluorescent resonance energy transfer (FRET) occurs if the tags (EYFP and ECFP) are less than 100 Å (10 nm) apart. We detected FRET using the sensitised emission method, measuring acceptor (EYFP) emission upon donor (ECFP) excitation. We had FRET when the intensity of emitted light from EYFP after excitation of the ECFP fluorochrome was stronger than the light emitted by ECFP or EYFP-tagged proteins alone, after excitation with the EYFP and ECFP lasers respectively (bleed through), given by the equation: FRET=I2−I1 (ID2/ID1)−I3 (IA2/IA3) is >0. FRET was normalised for expression levels using the equation: NFRET=FRET/(I1×I3)^1/2. NFRET was calculated from mean intensities (I) within a region of interest (ROI) containing more than 25 pixels where all pixels had intensities below 250 and the average intensities were between 100 and 200 for both the donor and the acceptor constructs. Channel 1 (ECFP) and 3 (EYFP) were measured as described above for imaging, and channel 2 (FRET) was excitated with 2=458 nm and detected at λ=530-600 nm. ID1, D2, D3 and IA1, A2, A3 were determined for cells transfected with ECFP and EYFP constructs only, with same settings and same fluorescence intensities as co-transfected cells (I1 and I3). […]
# To examine the degree of proximity of hABH2 and PCNA, fluorescence resonance energy transfer (FRET) was measured.
# PCNA [7] = target: T1, PCNA; experiment: Co-immunoprecipitation and western analysis of endogenous PCNA; assay type: binding; conditions: anti-GFP immunoprecipitation, extracts of stably expressing cells
# Procedure: HeLa (cervical cancer) and HaCaT (spontaneously transformed keratinocyte) cells stably expressing the constructs of interest were prepared by transfection (by Fugene 6) followed by cell sorting or cloning by dilution, and prolonged culturing in selective (using geneticin, G418, 400 μg/ml, Invitrogen) Dulbecco's modified Eagle's Medium high glucose 4.5 g/l (DMEM) (BioWhittaker®) supplemented with 10% Fetal Calf Serum (FCS), Amphotericin B (250 μg/ml, Sigma-Aldrich), gentamycin (100 μg/ml, Gibco) and glutamine (1 mM, BioWhittaker®). The cells were cultured at 37° C. in 5% carbon dioxide, humidified atmosphere. Fractionated cell extracts from HeLa were prepared by resuspending the cell pellets in 1× packed cell volume (PCV) in buffer I (10 mM Tris-HCl, pH 8.0 and 50 mM KCl) and 1×PCV in buffer II (10 mM Tris-HCl, 100 mM KCl, 20% glycerol, 0.5% Nonidet P-40, 10 mM EGTA, 10 mM MgCl2, 1 mM DTT, 1× Complete protease inhibitor (Roche), phosphates inhibitor cocktail (PIC I and PIC II, Sigma). Cells were incubated under constant shaking for 30 min at 4° C. The supernatant (soluble fraction) was harvested. The pellet (containing nuclei) was resuspended in 1×PCV of buffer III (10 mM Tris-HCl, pH 8.0 and 100 mM KCl) and 1×PCV buffer II, and briefly sonicated until all nuclei were disrupted. […]
# HeLa cells [8] = experiment: Cell survival assay (MTT) of HeLa cells expressing the construct, with alkylating agents; assay type: cell-based
# Procedure: HeLa and HaCaT cells were seeded into 96 well plates (4000 cells/well) and incubated for 4 hours. […] The U2OS cells were exposed to MMS and TMZ only. The cells were exposed continuously until harvest. Cells were harvested every day for 4 days using the MTT assay (Mosmann, 1983). OD was measured at 570 nm, and the average from at least 6 wells was used to calculate cell survival. Data presented is growth from one representative experiment and has been reproduced at least 2 times. […] TZM is reported to be an O^6G methylating agent, while MMC causes interstrand cross links via N-alkylation of guanine in CpG's.
# [9] = tested on: HaCaT (spontaneously transformed keratinocyte) cells; experiment: Cell survival assay of HaCaT cells stably expressing the construct; assay type: cell-based
# Procedure: HeLa and HaCaT cells were seeded into 96 well plates (4000 cells/well) and incubated for 4 hours. […] The U2OS cells were exposed to MMS and TMZ only. The cells were exposed continuously until harvest. Cells were harvested every day for 4 days using the MTT assay (Mosmann, 1983). OD was measured at 570 nm, and the average from at least 6 wells was used to calculate cell survival. Data presented is growth from one representative experiment and has been reproduced at least 2 times.
# [10] = HeLa cells expressing the construct
compound,measurement,setting,value
"O=NN(CCCl)C(=O)NCCCl [BCNU, 1,3-Bis(2-chloroethyl)-1-nitrosourea]",cell cycle effect,[1],transient G2/M arrest on day 1
same,"DNA repair intermediates (abasic sites, SSB, DSB)",[2],very low levels of repair intermediates
CC[C@H](C)[C@H](NC(=O)[C@H](CCCCN)NC(=O)[C@@H](NC(=O)[C@H](CCC(N)=O)NC(=O)[C@H](CCCNC(=N)N)NC(=O)[C@H](CC(C)C)NC(=O)[C@@H](NC(=O)[C@H](CCCCN)NC(=O)[C@H](CCCNC(=N)N)NC(=O)[C@H](CCCCN)NC(=O)[C@H](CCCCN)NC(=O)[C@H](CCCCN)NC(=O)[C@@H]1CCCN1C(=O)[C@H](CCC(N)=O)NC(=O)[C@H](C)NC(=O)CNC(=O)[C@H](CCCCN)NC(=O)[C@@H](NC(=O)[C@H](CC(C)C)NC(=O)[C@H](Cc1c[nH]c2ccccc12)NC(=O)[C@H](CCCNC(=N)N)NC(=O)[C@H](CC(=O)O)NC(=O)[C@@H](N)CCSC)C(C)C)C(C)C)[C@@H](C)CC)C(=O)N[C@@H](Cc1c[nH]c2ccccc12)C(=O)N[C@@H](Cc1ccccc1)C(=O)N[C@@H](CCC(N)=O)C(=O)N[C@@H](CC(N)=O)C(=O)N[C@@H](CCCNC(=N)N)C(=O)N[C@@H](CCCNC(=N)N)C(=O)N[C@@H](CCSC)C(=O)N[C@@H](CCCCN)C(=O)N[C@@H](Cc1c[nH]c2ccccc12)C(=O)N[C@@H](CCCCN)C(=O)N[C@@H](CCCCNC(=O)CCCCCNC(=O)c1ccc2c(c1)C(=O)OC21c2ccc(O)cc2Oc2cc(O)ccc21)C(=O)NCC(=O)O [MDR2] (H-MDRWLVKGAQPKKKRKVLRQIKIWFQNRRMKWKK([Ahx-5FAM])G-OH),membrane toxicity,cell membranes,membrane toxicity is low
"COS(C)(=O)=O [MMS, methyl methanesulfonate]",cell cycle effect,[1],S-phase arrest
same,"DNA repair intermediates (abasic sites, SSB, DSB)",[2],highest levels of DNA repair intermediates after 4 hours
"Cn1nnc2c(C(N)=O)ncn2c1=O [TMZ, 4-methyl-5-oxo-2,3,4,6,8-pentazabicyclo [4.3.0] nona-2,7,9-triene-9-carboxamide]",cell cycle effect,[1],arrested in G2/M up to day 3
same,"DNA repair intermediates (abasic sites, SSB, DSB)",[2],highest levels of repair intermediates after 4 hours
Ac-MDRWLVKWKKKRKIRRRRRRRRRRR [MDR26-72-0],activity in the MTT assay,HeLa cells [3],good activity
"MDRWLVKRIWKKKRKIIRQIKIWFQNRRMKWKK-Ahx5-FAM)G (not fully specified (residue 33, C-terminus); printed as MDRWLVKRIWKKKRKIIRQIKIWFQNRRMKWKK-Ahx5-FAM)G; also: Ahx5-FAM label and G at C-terminal end, arrangement unclear) [MDR26-8]",Cytotoxicity,HeLa cells [4],+
"hABH21-10-EYFP: the 10 N-terminal amino acids of hABH2 fused to EYFP, expressed in cells (MDRFLVKGAQ; not fully specified (C-terminus); also: fused to EYFP, expressed in cells)",co-localisation with PCNA in replication foci,PCNA [5],sufficient for co-localisation with PCNA
same,FRET with ECFP-PCNA,PCNA [6],positive FRET
same,pull-down of endogenous PCNA,PCNA [7],pulled down
same,sensitisation to MMS,HeLa cells [8]; [10],sensitised HeLa cells to treatment with MMS
same,"sensitisation to the other cytostatic agents (BCNU, TZM, MMC)",HeLa cells [8]; [10],sensitised HeLa cells to all of the other cytostatic agents tested
same,growth rate of untreated cells,"HeLa cells [8]; over-expression, no cytostatic agent",did not interfere with the growth rate of untreated cells
same,sensitivity to MMS and TMZ,[9],hypersensitive to MMS and TMZ
